The results in this text go back to BindingDB's records for patent US20230382915 (Deciphera Pharmaceuticals, 2023).

Experiment [1] deals with T1, Eukaryotic translation initiation factor 2-alpha kinase 3 (Homo sapiens, UniProt Q9NZJ5).
T1 sequence (Q9NZJ5 whole entry): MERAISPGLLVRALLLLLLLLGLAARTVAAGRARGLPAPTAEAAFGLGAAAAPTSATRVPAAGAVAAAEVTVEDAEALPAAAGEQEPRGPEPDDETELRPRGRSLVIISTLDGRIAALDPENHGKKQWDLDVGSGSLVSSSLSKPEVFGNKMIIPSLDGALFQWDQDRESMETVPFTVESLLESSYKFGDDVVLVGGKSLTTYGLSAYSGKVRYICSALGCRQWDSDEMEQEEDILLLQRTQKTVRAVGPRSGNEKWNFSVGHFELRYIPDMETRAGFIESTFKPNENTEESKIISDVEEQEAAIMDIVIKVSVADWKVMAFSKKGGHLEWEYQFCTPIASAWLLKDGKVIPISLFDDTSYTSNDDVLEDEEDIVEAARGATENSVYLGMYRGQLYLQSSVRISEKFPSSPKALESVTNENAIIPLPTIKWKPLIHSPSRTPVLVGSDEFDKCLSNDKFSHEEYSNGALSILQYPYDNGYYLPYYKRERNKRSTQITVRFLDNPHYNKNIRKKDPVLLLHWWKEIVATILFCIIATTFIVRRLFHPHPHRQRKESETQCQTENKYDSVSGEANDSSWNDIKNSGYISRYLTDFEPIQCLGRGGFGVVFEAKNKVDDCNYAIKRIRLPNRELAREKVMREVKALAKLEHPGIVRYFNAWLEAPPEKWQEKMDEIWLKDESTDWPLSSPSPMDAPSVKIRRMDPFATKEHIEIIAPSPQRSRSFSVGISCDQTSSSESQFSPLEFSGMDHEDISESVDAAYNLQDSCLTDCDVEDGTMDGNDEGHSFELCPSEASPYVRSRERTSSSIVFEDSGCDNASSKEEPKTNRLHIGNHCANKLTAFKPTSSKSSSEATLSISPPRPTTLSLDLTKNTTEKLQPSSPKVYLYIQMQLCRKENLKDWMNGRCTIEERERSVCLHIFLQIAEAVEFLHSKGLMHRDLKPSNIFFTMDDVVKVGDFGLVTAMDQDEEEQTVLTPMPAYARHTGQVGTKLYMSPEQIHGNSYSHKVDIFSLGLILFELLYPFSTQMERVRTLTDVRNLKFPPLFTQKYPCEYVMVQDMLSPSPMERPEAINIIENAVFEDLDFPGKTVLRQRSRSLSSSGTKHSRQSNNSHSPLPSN
Put plainly: Biochemical Assay for PERK. As to the method:
Activity of PERK kinase was determined spectroscopically using a coupled pyruvate kinase/lactate dehydrogenase assay that continuously monitors the ATP hydrolysis-dependent oxidation of NADH (e.g., Schindler et al. Science (2000) 289: 1938-1942). Assays were conducted in 384-well plates ([…] final volume) using 10 nM PERK (from Beryllium), 0.25 mg/mL Myelin Basic Protein substrate, 1.5 units pyruvate kinase, 2.1 units lactate dehydrogenase, 1 mM phosphoenol pyruvate, 0.28 mM NADH and 1 mM ATP in assay buffer (100 mM Tris, pH 7.5, 15 mM MgCl2, 0.5 mM DTT, 0.004% (w/v) BSA, and 0.004% Triton X-100). Inhibition of PERK was measured by adding serial diluted test compound (final assay concentration of 1% DMSO). A decrease in absorption at 340 nm was monitored continuously for 6 hours at 30° C. on a multi-mode microplate reader (BioTek). The reaction rate was calculated using the 2-3 h time frame. The reaction rate at each concentration of compound was converted to percent inhibition using controls (i.e., reaction with no test compound and reaction with a known inhibitor) and IC50 values were calculated using software routines in Prism (GraphPad software).

The target in experiment [2] is eIF-2-alpha kinase GCN2 (Homo sapiens, UniProt Q9P2K8). Put plainly: Biochemical Assay for GCN2. As to the method:
Activity of GCN2 kinase was determined using a TR-FRET kinase activity assay (e.g. Riddle et al. Analytical Biochemistry (2006) 356(1) 108-116). Assays were conducted in 384-well plates (13 μL assay volume) using 2 nM GCN2 (Carna Biosciences), 130 nM GFP-EIf2α (Invitrogen), 0.2 mg/mL E. coli tRNA (sigma) and 1 mM ATP in kinase buffer (Invitrogen). Inhibition of GCN2 was measured by adding serial diluted test compound (final assay concentration of 0.5% DMSO) followed by a 3-hour incubation. Tb-peIF2α (pSer52) antibody (Invitrogen) (2 nM final assay concentration) in kinase buffer containing EDTA (final assay concentration of 20 mM) was added. After a 60 min incubation at room temperature, TR-FRET was monitored using an excitation wavelength of 340 nm and emission wavelengths of 490 nm and 520 nm. The emission ratio (520/490) at each compound concentration of was converted to percent inhibition using controls (i.e., reaction with no test compound and reaction with a known inhibitor) and IC50 values were calculated by fitting a four-parameter sigmoidal curve to the data using Prism (GraphPad software).

A value given as a limit tells only on which side of the number the result lay.

Chain of eIF-2-alpha kinase GCN2 (Q9P2K8 whole entry): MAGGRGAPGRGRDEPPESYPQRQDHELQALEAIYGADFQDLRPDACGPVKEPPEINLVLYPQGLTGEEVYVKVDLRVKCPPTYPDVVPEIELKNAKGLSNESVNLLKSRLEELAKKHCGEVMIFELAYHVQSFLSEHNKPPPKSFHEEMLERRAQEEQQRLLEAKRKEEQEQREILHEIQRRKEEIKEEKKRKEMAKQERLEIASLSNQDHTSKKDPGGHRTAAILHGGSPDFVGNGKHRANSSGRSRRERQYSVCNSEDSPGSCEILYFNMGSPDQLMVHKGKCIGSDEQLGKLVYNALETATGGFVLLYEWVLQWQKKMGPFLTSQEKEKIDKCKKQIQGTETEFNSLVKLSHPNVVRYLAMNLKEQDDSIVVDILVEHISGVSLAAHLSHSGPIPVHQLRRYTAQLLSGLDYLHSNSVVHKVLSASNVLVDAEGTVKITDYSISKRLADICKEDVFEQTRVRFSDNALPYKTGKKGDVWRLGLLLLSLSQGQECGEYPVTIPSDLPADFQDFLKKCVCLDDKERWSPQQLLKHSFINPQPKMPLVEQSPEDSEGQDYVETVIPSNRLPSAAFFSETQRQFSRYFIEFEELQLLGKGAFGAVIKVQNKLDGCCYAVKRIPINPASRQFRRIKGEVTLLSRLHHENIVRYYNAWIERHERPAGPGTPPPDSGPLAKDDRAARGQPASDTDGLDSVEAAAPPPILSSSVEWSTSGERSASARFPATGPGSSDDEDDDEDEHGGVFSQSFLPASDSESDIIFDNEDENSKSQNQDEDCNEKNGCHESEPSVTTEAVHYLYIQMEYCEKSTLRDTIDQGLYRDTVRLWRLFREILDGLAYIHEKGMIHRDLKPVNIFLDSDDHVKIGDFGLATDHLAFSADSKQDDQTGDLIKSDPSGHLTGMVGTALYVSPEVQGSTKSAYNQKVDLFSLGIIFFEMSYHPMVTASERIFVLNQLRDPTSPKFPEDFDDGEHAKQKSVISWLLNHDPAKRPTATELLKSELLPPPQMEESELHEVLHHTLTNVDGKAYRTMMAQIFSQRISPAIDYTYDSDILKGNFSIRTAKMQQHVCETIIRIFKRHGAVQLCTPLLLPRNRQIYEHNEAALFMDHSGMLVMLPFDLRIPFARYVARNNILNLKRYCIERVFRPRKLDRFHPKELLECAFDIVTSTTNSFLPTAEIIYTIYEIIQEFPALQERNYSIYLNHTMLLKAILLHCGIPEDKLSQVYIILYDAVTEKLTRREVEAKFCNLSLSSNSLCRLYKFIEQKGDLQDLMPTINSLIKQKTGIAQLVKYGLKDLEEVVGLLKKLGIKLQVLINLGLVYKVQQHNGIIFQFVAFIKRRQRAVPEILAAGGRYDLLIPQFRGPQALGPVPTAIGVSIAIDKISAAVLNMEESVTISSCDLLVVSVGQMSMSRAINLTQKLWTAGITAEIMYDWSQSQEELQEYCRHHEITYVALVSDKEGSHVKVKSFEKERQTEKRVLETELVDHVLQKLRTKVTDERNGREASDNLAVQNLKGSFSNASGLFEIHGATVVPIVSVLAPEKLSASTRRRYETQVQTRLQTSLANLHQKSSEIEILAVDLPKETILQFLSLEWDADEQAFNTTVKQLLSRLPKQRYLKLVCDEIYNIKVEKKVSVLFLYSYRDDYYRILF

Usually IC50 stands for the midpoint of a concentration-inhibition curve. A lower IC50 goes with greater potency. Turning to `Nc1nccc2scc(-c3cccc(NS(=O)(=O)c4cc(Cl)cc(CO)c4Cl)c3F)c12` [US20230382915, Example 11], in experiment [1], the IC50 was less than 100 nM.

In experiment [1], `Nc1nccc2occ(-c3cccc(NS(=O)(=O)c4cc(Cl)cc(CO)c4Cl)c3F)c12` [US20230382915, Example 12] displayed an IC50 of less than 100 nM.

Consider `CN1CCC(n2cc(-c3cccc(NS(=O)(=O)c4cc(Cl)cc(CO)c4Cl)c3F)c3c(N)ncnc32)CC1` [US20230382915, Example 17], for which the IC50 in experiment [2] and in experiment [1] was less than 100 nM each time.
